Test results from US10174037B2, “Dihydropyrazolopyrimidinone compounds as PDE2 inhibitors” (Merck Sharp & Dohme Corp., priority 2015, dated 2019).
Where two headings read alike, the source gives them in different places.

Key:
human PDE2A1 = human PDE2A1 (Homo sapiens (Human), UniProt O00408); test: PDE selectivity IMAP FP assay, human PDE2A1; assay type: biochemical; details: Human PDE2
Method in brief: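 IMAP fluorescence polarization assay; PDE2 substrate 50 nM FAM-cAMP containing 1000 nM cGMP, enzyme diluted for 20% substrate conversion, in 10 mM Tris HCl pH 7.2, 10 mM MgCl2, 1 mM DTT. Reaction 60 min at room temperature, stopped with IMAP binding solution; polarization read after 1 h. Ki reported.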

Rhesus PDE2A3 = Rhesus PDE2A3 (Macaca mulatta, UniProt B3VTJ2); test: PDE2 fluorescence polarization (IMAP FP) assay, rhesus PDE2A3; assay type: biochemical, rhesus macaque
[1] = Lab B, read-out: Human PDE2 Ki (nM) Lab B
[2] = Lab B, read-out: Rhesus PDE2 Ki (nM) Lab B

human PDE2A1, sequence (O00408 other isoform, or with tags, fused parts or gaps): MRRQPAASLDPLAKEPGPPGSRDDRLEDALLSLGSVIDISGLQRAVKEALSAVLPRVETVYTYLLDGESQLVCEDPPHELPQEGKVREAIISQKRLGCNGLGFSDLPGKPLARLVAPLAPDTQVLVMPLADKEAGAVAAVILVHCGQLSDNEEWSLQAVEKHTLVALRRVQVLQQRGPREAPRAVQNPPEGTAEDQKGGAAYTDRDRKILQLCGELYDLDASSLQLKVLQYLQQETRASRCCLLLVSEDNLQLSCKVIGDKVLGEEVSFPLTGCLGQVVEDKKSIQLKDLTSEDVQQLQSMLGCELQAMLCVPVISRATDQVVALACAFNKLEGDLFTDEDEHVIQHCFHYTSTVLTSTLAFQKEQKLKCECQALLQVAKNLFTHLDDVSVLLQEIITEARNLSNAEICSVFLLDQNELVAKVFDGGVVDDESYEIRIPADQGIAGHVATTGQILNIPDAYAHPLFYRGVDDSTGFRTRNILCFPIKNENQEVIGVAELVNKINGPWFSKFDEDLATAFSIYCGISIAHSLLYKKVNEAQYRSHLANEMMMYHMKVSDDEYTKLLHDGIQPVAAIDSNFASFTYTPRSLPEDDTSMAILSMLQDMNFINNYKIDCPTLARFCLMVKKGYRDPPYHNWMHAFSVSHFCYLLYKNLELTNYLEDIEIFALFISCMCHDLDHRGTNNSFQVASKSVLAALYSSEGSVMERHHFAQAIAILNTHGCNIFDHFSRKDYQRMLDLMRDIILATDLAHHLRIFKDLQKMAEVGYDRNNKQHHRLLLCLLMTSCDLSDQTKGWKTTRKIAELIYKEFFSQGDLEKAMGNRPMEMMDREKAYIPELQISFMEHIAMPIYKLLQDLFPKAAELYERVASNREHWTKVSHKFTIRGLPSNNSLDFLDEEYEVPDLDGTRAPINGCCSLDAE
Rhesus PDE2A3, sequence (B3VTJ2 1-941): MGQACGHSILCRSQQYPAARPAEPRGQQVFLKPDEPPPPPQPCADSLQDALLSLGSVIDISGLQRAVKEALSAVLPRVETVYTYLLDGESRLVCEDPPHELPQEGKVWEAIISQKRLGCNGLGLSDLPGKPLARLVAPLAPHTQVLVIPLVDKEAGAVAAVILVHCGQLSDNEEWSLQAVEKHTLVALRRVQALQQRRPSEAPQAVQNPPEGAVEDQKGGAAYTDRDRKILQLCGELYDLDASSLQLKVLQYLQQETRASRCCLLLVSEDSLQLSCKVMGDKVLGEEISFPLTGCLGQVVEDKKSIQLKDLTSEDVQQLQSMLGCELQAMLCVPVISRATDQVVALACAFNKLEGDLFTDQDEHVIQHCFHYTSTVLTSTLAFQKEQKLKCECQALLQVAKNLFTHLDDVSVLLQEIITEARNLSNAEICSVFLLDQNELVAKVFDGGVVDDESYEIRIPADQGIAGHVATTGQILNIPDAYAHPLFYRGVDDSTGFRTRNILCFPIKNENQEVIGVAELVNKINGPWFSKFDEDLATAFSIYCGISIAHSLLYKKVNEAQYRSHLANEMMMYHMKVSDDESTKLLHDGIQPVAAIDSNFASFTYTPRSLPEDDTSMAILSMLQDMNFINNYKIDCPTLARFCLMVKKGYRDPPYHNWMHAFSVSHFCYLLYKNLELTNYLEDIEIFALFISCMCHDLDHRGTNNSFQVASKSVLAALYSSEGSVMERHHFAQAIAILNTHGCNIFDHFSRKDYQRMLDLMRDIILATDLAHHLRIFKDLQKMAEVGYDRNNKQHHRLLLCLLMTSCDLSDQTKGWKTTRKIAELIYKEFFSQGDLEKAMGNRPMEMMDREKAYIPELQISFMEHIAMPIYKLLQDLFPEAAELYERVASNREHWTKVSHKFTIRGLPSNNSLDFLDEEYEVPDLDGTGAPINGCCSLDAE

Row | SMILES | Ki (human PDE2A1; [1]) [nM] | Ki (Rhesus PDE2A3; [2]) [nM] | Ki (human PDE2A1; Lab A, read-out: Human PDE2 Ki (nM) Lab A) [nM] | Ki (Rhesus PDE2A3; Lab A, read-out: Rhesus PDE2 Ki (nM) Lab A) [nM]
1 | CC(C)c1ccc(C(C2CC2)n2nc(CO)c3c(=O)[nH]c(N(C)C)nc32)cc1 (single isomer, unassigned) [Example 76, (R)- or (S)-1-(Cyclopropyl(4-isopropylphenyl)methyl)-6-(dimethylamino)-3-(hydroxymethyl)-1H-pyrazolo[3,4-d]pyrimidin-4(5H)-one] | 0.22 | 0.21 | – | –
2 | CC(c1ccc(C(F)(F)F)cc1)n1nc(CC(F)(F)F)c2c(=O)[nH]c(O)nc21 (single isomer, unassigned) [Example 257, (S)- or (R)-6-Hydroxy-3-(2,2,2-trifluoroethyl)-1-{1-(4-(trifluoromethyl)phenyl]ethyl}-1,5-dihydro-4H-pyrazolo[3,4-d]pyrimidin-4-one] | 2 | 1.5 | 0.68 | 0.96
3 | CN(C)c1nc2c(c(CO)nn2C(c2ccc(OC(F)F)cc2)C2CC2)c(=O)[nH]1 (single isomer, unassigned) [Example 128, (R)- or (S)-1-(Cyclopropyl(4-(difluoromethoxy)phenyl)methyl)-6-(dimethylamino)-3-(hydroxymethyl)-1H-pyrazolo[3,4-d]pyrimidin-4(5H)-one] | 0.5 | 0.55 | – | –
4 | CC(C)c1ccc(C(C2CC2)n2nc(CF)c3c(=O)[nH]c(N(C)C)nc32)cc1 (single isomer, unassigned) [Example 183, (R)- or (S)-1-(Cyclopropyl(4-isopropylphenyl)methyl)-6-(dimethylamino)-3-(fluoromethyl)-1H-pyrazolo[3,4-d]pyrimidin-4(5H)-one] | 0.064 | 0.082 | – | –

The remaining lines, values ahead:

Row | Ki (human PDE2A1; [1]) [nM] | Ki (Rhesus PDE2A3; [2]) [nM] | Ki (human PDE2A1; Lab A, read-out: Human PDE2 Ki (nM) Lab A) [nM] | Ki (Rhesus PDE2A3; Lab A, read-out: Rhesus PDE2 Ki (nM) Lab A) [nM] | SMILES
5 | 0.073 | 0.14 | – | – | CCC(c1ccc(C(C)(F)F)cc1)n1nc(CO)c2c(=O)[nH]c(N(C)C)nc21 (single isomer, unassigned) [Example 137, (S)- or (R)-1-(1-(4-(1,1-Difluoroethyl)phenyl)propyl)-6-(dimethylamino)-3-(hydroxymethyl)-1H-pyrazolo[3,4-d]pyrimidin-4(5H)-one]
6 | 0.56 | 0.64 | – | – | CN(C)c1nc2c(c(CO)nn2C(c2ccc(C(C)(F)F)cc2)C2CC2)c(=O)[nH]1 (single isomer, unassigned) [Example 141, (S)- or (R)-1-(Cyclopropyl(4-(1,1-difluoroethyl)phenyl)methyl)-6-(dimethylamino)-3-(hydroxymethyl)-1H-pyrazolo[3,4-d]pyrimidin-4(5H)-one]
7 | 0.12 | 0.16 | – | – | CC(C)C(c1ccc(OC(F)F)cc1)n1nc(CF)c2c(=O)[nH]c(N(C)C)nc21 (single isomer, unassigned) [Example 185, (S)- or (R)-1-(1-(4-(Difluoromethoxy)phenyl)-2-methylpropyl)-6-(dimethylamino)-3-(fluoromethyl)-1H-pyrazolo[3,4-d]pyrimidin-4(5H)-one]
8 | 0.038 | 0.072 | – | – | CCC(c1ccc(C(C)(F)F)cc1)n1nc(CF)c2c(=O)[nH]c(N(C)C)nc21 (single isomer, unassigned) [Example 205, (S)- or (R)-1-(1-(4-(1,1-Difluoroethyl)phenyl)propyl)-6-(dimethylamino)-3-(fluoromethyl)-1H-pyrazolo[3,4-d]pyrimidin-4(5H)-one]
9 | 0.041 | 0.07 | – | – | CC(C)C(c1ccc(C(F)(F)F)cc1F)n1nc(CF)c2c(=O)[nH]c(N(C)C)nc21 (single isomer, unassigned) [Example 200, (R)- or (S)-6-(Dimethylamino)-1-(1-(2-fluoro-4-(trifluoromethyl)phenyl)-2-methylpropyl)-3-(fluoromethyl)-1H-pyrazolo[3,4-d]pyrimidin-4(5H)-one]
10 | 3.6 | 6.2 | – | – | CC(c1ccc(C(C)(F)F)c(F)c1)n1nc(CO)c2c(=O)[nH]c(N(C)C)nc21 (single isomer, unassigned) [Example 106, (R)- or (S)-1-(1-(4-(1,1-Difluoroethyl)-3-fluorophenyl)ethyl)-6-(dimethylamino)-3-(hydroxymethyl)-1H-pyrazolo[3,4-d]pyrimidin-4(5H)-one]
